pEC50: −log10 of the molar value. Where two headings read alike, the source gives them in different places.
Target: T1, LXRα (Homo sapiens, UniProt Q13133)
T1 construct: Co-transfection expression plasmids, comprising full-length LXRα (pCMX-h LXRα); expressed in transfected cells; host or cells: CV-1 African green monkey kidney cells, transient transfection with FuGENE6
T1 sequence (Q13133 1-447): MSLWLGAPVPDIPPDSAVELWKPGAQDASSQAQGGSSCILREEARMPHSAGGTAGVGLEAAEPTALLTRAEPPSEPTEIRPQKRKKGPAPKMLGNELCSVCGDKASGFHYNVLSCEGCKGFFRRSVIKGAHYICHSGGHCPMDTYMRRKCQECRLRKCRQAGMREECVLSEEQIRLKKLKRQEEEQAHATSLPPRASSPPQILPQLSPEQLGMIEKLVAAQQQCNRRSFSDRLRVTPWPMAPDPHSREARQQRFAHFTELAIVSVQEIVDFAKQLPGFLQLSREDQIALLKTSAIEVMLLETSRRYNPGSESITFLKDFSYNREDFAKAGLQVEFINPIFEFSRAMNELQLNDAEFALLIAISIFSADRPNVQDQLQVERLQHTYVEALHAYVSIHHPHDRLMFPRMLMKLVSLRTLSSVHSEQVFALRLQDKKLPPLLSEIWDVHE
T1 sequence (P19793 1-462 partner): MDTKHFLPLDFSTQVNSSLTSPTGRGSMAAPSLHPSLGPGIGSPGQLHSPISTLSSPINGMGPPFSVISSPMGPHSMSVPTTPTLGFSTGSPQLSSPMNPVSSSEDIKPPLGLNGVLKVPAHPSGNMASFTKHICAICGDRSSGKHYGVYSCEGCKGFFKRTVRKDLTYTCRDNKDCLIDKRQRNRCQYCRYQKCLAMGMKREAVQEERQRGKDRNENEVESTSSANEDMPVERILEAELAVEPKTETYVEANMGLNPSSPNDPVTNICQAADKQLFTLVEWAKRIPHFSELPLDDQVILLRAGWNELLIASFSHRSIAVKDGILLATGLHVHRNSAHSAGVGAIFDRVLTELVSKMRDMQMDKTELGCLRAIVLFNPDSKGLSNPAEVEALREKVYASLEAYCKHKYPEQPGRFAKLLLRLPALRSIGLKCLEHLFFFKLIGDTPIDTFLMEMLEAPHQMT
Test: LXR/LXRE co-transfection assay (LXRα)
Format: cell-based
Settings: for pEC50: CV-1 cells, LXRE luciferase reporter; for Emax: read-out: LXRα Eff (%)
From the text: To measure the ability of compounds to activate or inhibit the transcriptional activity of LXR in a cell based assay, the co-transfection assay was used. It has been shown that LXR functions as a heterodimer with RXR. For the co-transfection assay, expression plasmids for LXRα and LXRβ are introduced separately via transient transfection into mammalian cells along with a luciferase reporter plasmid that contains one copy of a DNA sequence that is bound by LXR-RXR heterodimers (LXRE; Willy, P. et. al. 1995). LXRs heterodimerize with the endogenous RXR. Treatment of transfected cells with an LXR agonist increases the transcriptional activity of LXR, which is measured by an increase in luciferase activity.
Co-transfection expression plasmids, comprising full-length LXRα (pCMX-h LXRα or LXRβ (pCMX-hLXRβ), reporter plasmid (LXREx1-Tk-Luciferase), and control (pCMX-Galactosidase expression vector) (Willey et al. Genes & Development 9 1033-1045 (1995)).
CV-1 cells were prepared 24 hours prior to the experiment by plating them into T-175 flasks or 500 cm^2 dishes in order to achieve 70-80% confluency on the day of the transfection. The number of cells to be transfected was determined by the number of plates to be screened. Each well of a 384 well plate requires ˜8000 cells. DNA Transfection Reagent was prepared by mixing the required plasmid DNAs with a cationic lipid transfection reagent FuGENE6 (Roche) by following the instructions provided with the reagents. Optimal DNA amounts were determined empirically per cell line and size of vessel to be transfected. For each T175 cm^2 flask a total of 20 μg of DNA, 60 μl of Fugene 6 and 1 ml of Optimem was mixed and added. Cells were then incubated at least 5 hours at 37° C. to prepare screening cells.
Assay plates were prepared by dispensing 5 μL, of compound per well of a 384 well plate to achieve final compound concentration of 10 μM and no more than 0.5% DMSO. Media was removed from the screening cells, the cells trypsinized, harvested cells by centrifugation, counted, and plated at a density of approximately 8000 cells per well in the 384 well assay plate prepared above in a volume of about 45 μL. Assay plates containing both compounds and screening cells (50 μL, in total volume) were incubated for 20 hours at 37° C.
After incubation with compounds, media was removed from the cells and luciferase assay reagent (30 μL/well) added. After ˜2 minutes at ambient temperature, the assay plates were read on a luminometer (PE Biosystems Northstar reader with on-board injectors, or equivalent).
The LXR/LXRE co-transfection assay can be used to establish the EC50/IC50 values for potency and percent activity or inhibition for efficacy. Efficacy defines the activity of a compound relative to a high control ((N-(3-((4-fluorophenyl)-(naphthalene-2-sulfonyl)amino)propyl)-2,2-dimethylpropionamide)) or a low control (DMSO/vehicle). The dose response curves are generated from a 10 point curve with concentrations differing by ½ LOG units.
The data from this assay is fitted to the following equation, from which the EC50 value may be solved: Y=Bottom+(Top−Bottom)/(1+10^((logEC50-X)*HillSlope)).
The EC50/IC50 is therefore defined as the concentration at which an agonist or antagonist elicits a response that is half way between the Top (maximum) and Bottom (baseline) values. The EC50/IC50 values represented are the averages of at least 2 and normally 3 independent experiments. The determination of the relative efficacy or % control for an agonist is by comparison to the maximum response achieved by ((N-(3-((4-fluorophenyl)-(naphthalene-2-sulfonyl)-amino)propyl)-2,2-dimethylpropionamide) that is measured individually in each dose response experiment.

[1] = efficacy relative to high control N-(3-((4-fluorophenyl)-(naphthalene-2-sulfonyl)amino)propyl)-2,2-dimethylpropionamide

| SMILES | pEC50 | Emax [1] | Emax |
| --- | --- | --- | --- |
| CC(C)(O)c1cn(-c2ccc(-c3cc(F)c(CO)c(S(C)(=O)=O)c3)cc2Cl)c(C(C)(C)c2c(Cl)cccc2Cl)n1 [Example 3, 2-(1-(3-chloro-3′-fluoro-4′-(hydroxymethyl)-5′-(methylsulfonyl)biphenyl-4-yl)-2-(2-(2,6-dichlorophenyl)propan-2-yl)-1H-imidazol-4-yl)propan-2-ol] | > 7.00 | 6% |  |
| CC(C)(O)c1cn(-c2ccc(-c3cc(F)c(CO)c(S(C)(=O)=O)c3)cc2F)c(C(C)(C)c2ccccc2Cl)n1 [Example 6, 2-(2-(2-(2-Chloro-phenyl)propan-2-yl)-1-(3,3′-difluoro-4′-hydroxymethyl-5′-(methylsulfonyl)biphenyl-4-yl)-1H-imidazol-4-yl)-propan-2-ol] | > 7.00 | 25% |  |
| CC(C)(O)c1cn(-c2ccc(-c3cc(F)c(CO)c(S(C)(=O)=O)c3)cc2)c(C(C)(C)c2cccc(F)c2Cl)n1 [Example 4, 2-(2-(2-(2-chloro-3-fluorophenyl)propan-2-yl)-1-(3′-fluoro-4′-(hydroxymethyl)-5′-(methylsulfonyl)biphenyl-4-yl)-1H-imidazol-4-yl)propan-2-ol] |  | 12% |  |
| Cc1cc(-c2cc(F)c(CO)c(S(C)(=O)=O)c2)ccc1-n1cc(C(C)(C)O)nc1C(C)(C)c1c(F)cccc1Cl [Example 2, 2-(2-(2-(2-chloro-6-fluorophenyl)propan-2-yl)-1-(3′-fluoro-4′-(hydroxymethyl)-3-methyl-5′-(methylsulfonyl)biphenyl-4-yl)-1H-imidazol-4-yl)propan-2-ol] | > 7.00 | 10% |  |
| Cc1ccccc1Cc1nc(C(C)(C)O)cn1-c1ccc(-c2cc(F)c(CO)c(S(C)(=O)=O)c2)cc1 [Example 17, 2-(1-(3′-fluoro-4′-(hydroxymethyl)-5′-(methylsulfonyl)biphenyl-4-yl)-2-(2-methylbenzyl)-1H-imidazol-4-yl)propan-2-ol] | 6.00 to 7.00 | 13% |  |
| CC(C)(O)c1cn(-c2ccc(-c3cc(F)c(CO)c(S(C)(=O)=O)c3)cc2F)c(C(C)(C)c2ccccc2F)n1 [Example 8, 2-{1-(3,3′-Difluoro-4′-hydroxymethyl-5′-methanesulfonyl-biphenyl-4-yl)-2-[2-(2-fluorophenyl)propan-2-yl]-1H-imidazol-4-yl}-propan-2-ol] | > 7.00 | 10% |  |
| CC(C)(O)c1cn(-c2ccc(-c3cc(F)c(CO)c(S(C)(=O)=O)c3)cc2)c(C(C)(C)c2c(Cl)cccc2Cl)n1 [Example 5, 2-(2-(2-(2,6-dichlorophenyl)propan-2-yl)-1-(3′-fluoro-4′-(hydroxymethyl)-5′-(methylsulfonyl)biphenyl-4-yl)-1H-imidazol-4-yl)propan-2-ol] | > 7.00 | 25% |  |
| CC(C)(O)c1cn(-c2ccc(-c3cccc(S(C)(=O)=O)c3)cc2)c(C(C)(C)c2ccccc2Cl)n1 [Compound No. 19, Table 1, WO 2007/002563, reference compound] | 6.00 to 7.00 | 38% |  |
| CC(c1c(Cl)cccc1Cl)c1nc(C(C)(C)O)cn1-c1ccc(-c2cc(F)c(CO)c(S(C)(=O)=O)c2)cc1F (stereo not drawn) [Example 21, 2-{2-[1-(2,6-dichlorophenyl)ethyl]-1-[3,3′-difluoro-4′-(hydroxymethyl)-5′-(methylsulfonyl)biphenyl-4-yl]-1H-imidazol-4-yl}propan-2-ol] | > 7.00 |  | 18% |

Now from value to molecule, other results behind:

| pEC50 | Emax [1] | SMILES | Emax |
| --- | --- | --- | --- |
| > 7.00 | 13% | CC(C)(O)c1cn(-c2ccc(-c3cc(F)c(CO)c(S(C)(=O)=O)c3)cc2F)c(Cc2ccccc2C(F)(F)F)n1 [Example 12, 2-(1-(3,3′-difluoro-4′-(hydroxymethyl)-5′-(methylsulfonyl)biphenyl-4-yl)-2-(2-(trifluoromethyl)benzyl)-1H-imidazol-4-yl)propan-2-ol] |  |
| > 7.00 | 8% | CC(C)(O)c1cn(-c2ccc(-c3cc(F)c(CO)c(S(C)(=O)=O)c3)cc2)c(Cc2ccc(Cl)cc2Cl)n1 [Example 15, 2-(2-(2,4-dichlorobenzyl)-1-(3′-fluoro-4′-(hydroxymethyl)-5′-(methylsulfonyl)biphenyl-4-yl)-1H-imidazol-4-yl)propan-2-ol] |  |
| > 7.00 | 15% | CC(C)(O)c1cn(-c2ccc(-c3cc(F)c(CO)c(S(C)(=O)=O)c3)cc2F)c(Cc2ccc(F)cc2Cl)n1 [Example 14, 2-(2-(2-chloro-4-fluorobenzyl)-1-(3,3′-difluoro-4′-(hydroxymethyl)-5′-(methylsulfonyl)biphenyl-4-yl)-1H-imidazol-4-yl)propan-2-ol] |  |
| > 7.00 | 18% | CC(C)(O)c1cn(-c2ccc(-c3cc(F)c(CO)c(S(C)(=O)=O)c3)cc2Cl)c(Cc2ccc(F)cc2Cl)n1 [Example 13, 2-(1-(3-chloro-3′-fluoro-4′-(hydroxymethyl)-5′-(methylsulfonyl)biphenyl-4-yl)-2-(2-chloro-4-fluorobenzyl)-1H-imidazol-4-yl)propan-2-ol] |  |
| < 6.00 |  | CC(C)(O)c1cn(-c2ccc(-c3cc(F)c(CO)c(S(C)(=O)=O)c3)cc2)c(Cc2cc(F)ccc2Cl)n1 [Example 19, 2-[2-(2-Chloro-5-fluoro-benzyl)-1-(3′-fluoro-4′-hydroxymethyl-5′-methanesulfonyl-biphenyl-4-yl)-1H-imidazol-4-yl]-propan-2-ol] |  |
| 6.00 to 7.00 | 15% | CC(C)(O)c1cn(-c2ccc(-c3cc(F)c(CO)c(S(C)(=O)=O)c3)cc2F)c(Cc2ccccc2Cl)n1 [Example 20, 2-[2-(2-Chloro-benzyl)-1-(3,3′-difluoro-4′-hydroxymethyl-5′-methanesulfonyl-biphenyl-4-yl)-1H-imidazol-4-yl]-propan-2-ol] |  |
| > 7.00 | 15% | CC(C)(O)c1cn(-c2ccc(-c3cc(F)c(CO)c(S(C)(=O)=O)c3)cc2F)c(C(C)(C)c2c(F)cccc2Cl)n1 [Example 7, 2-(2-(2-(2-chloro-6-fluorophenyl)propan-2-yl)-1-(3,3′-difluoro-4′-(hydroxymethyl)-5′-(methylsulfonyl)biphenyl-4-yl)-1H-imidazol-4-yl)propan-2-ol] |  |
